From BindingDB's records for doi:10.7270/Q2S180TW (Burnham Center For Chemical Genomics, 2008)

Target: Heat shock 70 kDa protein 1A (Homo sapiens, UniProt V9GZ37)
Assay: Hsp70 inhibitors, probe displacement, primary screen, biochemical, fluorescence polarization (AID 583)
Conditions: pH 7; 23 °C

Heat shock 70 kDa protein 1A, sequence (V9GZ37 whole entry): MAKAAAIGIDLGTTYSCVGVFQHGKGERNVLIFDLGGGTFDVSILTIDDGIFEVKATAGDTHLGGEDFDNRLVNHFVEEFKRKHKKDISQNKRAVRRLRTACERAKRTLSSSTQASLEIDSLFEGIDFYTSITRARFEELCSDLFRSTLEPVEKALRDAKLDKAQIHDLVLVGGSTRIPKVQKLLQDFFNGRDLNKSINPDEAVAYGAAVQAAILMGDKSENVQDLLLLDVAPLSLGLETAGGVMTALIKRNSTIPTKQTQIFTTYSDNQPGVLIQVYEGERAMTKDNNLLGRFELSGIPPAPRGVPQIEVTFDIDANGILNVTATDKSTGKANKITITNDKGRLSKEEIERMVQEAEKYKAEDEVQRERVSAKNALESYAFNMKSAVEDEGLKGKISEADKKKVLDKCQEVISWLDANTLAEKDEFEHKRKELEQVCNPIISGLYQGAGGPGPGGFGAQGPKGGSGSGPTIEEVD

Row | SMILES | IC50
1 | CC(=O)N1CCC2(CC1)c1c(n[nH]c1C)OC(=N)C2C#N (configuration not stated) [6-azanyl-1'-ethanoyl-3-methyl-spiro[2H-pyrano[2,3-c]pyrazole-4,4'-piperidine]-5-carbonitrile] | 100 µM
2 | C=c1[nH]n(-c2cccc(C(=O)O)c2)c(=O)c1=CC=Cc1ccco1 [SMR000113614] | 21.7 µM
